Laboratory results as given in patent US11702404B2, “GLP-1R modulating compounds” (priority 2019, dated 2023).

Experiments:
[1] = Microsomal stability, human liver microsomes (predicted hepatic clearance); conditions: predicted from in vitro microsomal stability data
GLP-1R = GLP-1R (Homo sapiens, UniProt P43220); test: GLP-1R activation: cAMP increase in CHO cells stably expressing GLP-1R; type: cell-based; conditions: cAMP increase, CHO cells stably expressing GLP-1R, 10 point dose response, 30 minutes incubation; read-out: EC50
Chain of GLP-1R (P43220 24-463): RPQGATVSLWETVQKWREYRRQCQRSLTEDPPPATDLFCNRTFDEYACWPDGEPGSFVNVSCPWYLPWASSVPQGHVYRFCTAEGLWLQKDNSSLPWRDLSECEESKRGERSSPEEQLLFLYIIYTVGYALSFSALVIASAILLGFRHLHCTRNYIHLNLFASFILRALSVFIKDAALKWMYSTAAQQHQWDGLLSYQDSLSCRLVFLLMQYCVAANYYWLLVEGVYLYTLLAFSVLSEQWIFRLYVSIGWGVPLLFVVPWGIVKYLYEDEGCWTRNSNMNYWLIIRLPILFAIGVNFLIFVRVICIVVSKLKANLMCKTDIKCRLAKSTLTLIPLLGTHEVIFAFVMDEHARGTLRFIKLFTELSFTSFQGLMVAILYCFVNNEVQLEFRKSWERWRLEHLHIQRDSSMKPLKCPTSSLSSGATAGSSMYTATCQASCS

| Predicted Hepatic Clearance (Pred. Cl.) [1] [mL/min/kg] | EC50 (GLP-1R) [nM] | Compound |
| --- | --- | --- |
| 4.67 | 0.6 | CC1(Cn2c(Cc3ccc(-c4cccc(OCc5ccc(C#N)cc5F)n4)cc3F)nc3ccc(C(=O)O)cc32)CCO1 (stereo not drawn) [Example 365, 2-(4-(6-((4-cyano-2-fluorobenzyl)oxy)pyridin-2-yl)-2-fluorobenzyl)-1-((2-methyloxetan-2-yl)methyl)-1H-benzo[d]imidazole-6-carboxylic acid] |
| 5.5 | 20.8 | COCCn1c(Cc2ccc(-c3cccc(OCc4ccc(C#N)cc4F)n3)cc2F)nc2ccc(C(=O)O)c(Cl)c21 [Example 366, 7-chloro-2-(4-(6-((4-cyano-2-fluorobenzyl)oxy)pyridin-2-yl)-2-fluorobenzyl)-1-(2-methoxyethyl)-1H-benzo[d]imidazole-6-carboxylic acid] |
| 10.8 | 0.86 | COc1cc(C#N)ccc1COc1cccc(-c2ccc(Cc3nc4ccc(C(=O)O)cc4n3CC3(CF)CC3)c(F)c2)n1 [Example 367, 2-(4-(6-((4-cyano-2-methoxybenzyl)oxy)pyridin-2-yl)-2-fluorobenzyl)-1-((1-(fluoromethyl)cyclopropyl)methyl)-1H-benzo[d]imidazole-6-carboxylic acid] |
| <1.83 | 0.77 | COCCn1c(Cc2cc(F)c(-c3ccnc(OCc4ccc(C#N)cc4OC)n3)cc2F)nc2ccc(C(=O)O)cc21 [Example 368, 2-(4-(2-((4-cyano-2-methoxybenzyl)oxy)pyrimidin-4-yl)-2,5-difluorobenzyl)-1-(2-methoxyethyl)-1H-benzo[d]imidazole-6-carboxylic acid] |
| 4.33 | 0.13 | N#Cc1ccc(COc2nccc(-c3ccc(Cc4nc5c(F)cc(C(=O)O)cc5n4C[C@@H]4CCO4)cc3F)n2)c(F)c1 [Example 369, (S)-2-(4-(2-((4-cyano-2-fluorobenzyl)oxy)pyrimidin-4-yl)-3-fluorobenzyl)-4-fluoro-1-(oxetan-2-ylmethyl)-1H-benzo[d]imidazole-6-carboxylic acid] |
| 6.7 | 3.34 | CCn1nncc1Cn1c(Cc2ccc(-c3cccc(OCc4ccc(C#N)cc4F)n3)cc2F)nc2ccc(C(=O)O)cc21 [Example 370, 2-(4-(6-((4-cyano-2-fluorobenzyl)oxy)pyridin-2-yl)-2-fluorobenzyl)-1-((l-ethyl-1H-1,2,3-triazol-5-yl)methyl)-1H-benzo[d]imidazole-6-carboxylic acid] |
| 3 | 1.61 | N#Cc1ccc(COc2cccc(-c3ccc(Cc4nc5ccc(C(=O)O)cc5n4Cc4ncco4)c(F)c3)n2)c(F)c1 [Example 371, 2-(4-(6-((4-cyano-2-fluorobenzyl)oxy)pyridin-2-yl)-2-fluorobenzyl)-1-(oxazol-2-ylmethyl)-1H-benzo[d]imidazole-6-carboxylic acid] |
| 7.83 | 243 | COCCn1c(Cc2c(F)cc(-c3cccnc3OC(C)c3ccc(Cl)cc3F)cc2F)nc2ccc(C(=O)O)cc21 (stereo not drawn) [Example 372, 2-(4-(2-(1-(4-chloro-2-fluorophenyl)ethoxy)pyridin-3-yl)-2,6-difluorobenzyl)-1-(2-methoxyethyl)-1H-benzo[d]imidazole-6-carboxylic acid] |
| 19.5 | 4770 | COCCn1c(Cc2ccc(-c3cccc(OCc4cccc(=O)n4C)n3)cc2F)nc2ccc(C(=O)O)cc21 [Example 373, 2-(2-fluoro-4-(6-((1-methyl-6-oxo-1,6-dihydropyridin-2-yl)methoxy)pyridin-2-yl)benzyl)-1-(2-methoxyethyl)-1H-benzo[d]imidazole-6-carboxylic acid] |
| 6.5 | 1930 | COCCn1c(Cc2ccc(-c3cccc(OCc4cccn(C)c4=O)n3)cc2F)nc2ccc(C(=O)O)cc21 [Example 374, 2-(2-fluoro-4-(6-((1-methyl-2-oxo-1,2-dihydropyridin-3-yl)methoxy)pyridin-2-yl)benzyl)-1-(2-methoxyethyl)-1H-benzo[d]imidazole-6-carboxylic acid] |
| 4.25 | 5.46 | N#Cc1ccc(COc2cccc(-c3ccc(Cc4nc5ccc(C(=O)O)cc5n4CC4(CO)CC4)c(F)c3)n2)c(F)c1 [Example 375, 2-(4-(6-((4-cyano-2-fluorobenzyl)oxy)pyridin-2-yl)-2-fluorobenzyl)-1-((1-(hydroxymethyl)cyclopropyl)methyl)-1H-benzo[d]imidazole-6-carboxylic acid] |
| 3.83 | 1.53 | N#CCC1(n2c(Cc3ccc(-c4cccc(OCc5ccc(C#N)cc5F)n4)cc3F)nc3ccc(C(=O)O)cc32)CC1 [Example 376, 2-(4-(6-((4-cyano-2-fluorobenzyl)oxy)pyridin-2-yl)-2-fluorobenzyl)-1-(1-(cyanomethyl)cyclopropyl)-1H-benzo[d]imidazole-6-carboxylic acid] |
| 3.17 | 10.9 | COCC1(n2c(Cc3ccc(-c4cccc(OCc5ccc(C#N)cc5F)n4)cc3F)nc3ccc(C(=O)O)cc32)CC1 [Example 377, 2-(4-(6-((4-cyano-2-fluorobenzyl)oxy)pyridin-2-yl)-2-fluorobenzyl)-1-(1-(methoxymethyl)cyclopropyl)-1H-benzo[d]imidazole-6-carboxylic acid] |
| 5.5 | 12.4 | COCCn1c(Cc2c(F)cc(-c3ccnc(OCc4ccc(C#N)cc4F)n3)cc2F)nc2ccc(C(=O)O)cc21 [Example 378, 2-(4-(2-((4-cyano-2-fluorobenzyl)oxy)pyrimidin-4-yl)-2,6-difluorobenzyl)-1-(2-methoxyethyl)-1H-benzo[d]imidazole-6-carboxylic acid] |
| 3.5 | 2.8 | N#Cc1ccc(COc2cccc(-c3ccc(Cc4nc5ccc(C(=O)O)cc5n4CCCF)c(F)c3)n2)c(F)c1 [Example 379, 2-(4-(6-((4-cyano-2-fluorobenzyl)oxy)pyridin-2-yl)-2-fluorobenzyl)-1-(3-fluoropropyl)-1H-benzo[d]imidazole-6-carboxylic acid] |
| <1.83 | 7.72 | COCC1(Cn2c(Cc3ccc(-c4cccc(OCc5ccc(C#N)cc5F)n4)cc3F)nc3ccc(C(=O)O)cc32)CC1 [Example 380, 2-(4-(6-((4-cyano-2-fluorobenzyl)oxy)pyridin-2-yl)-2-fluorobenzyl)-1-((1-(methoxymethyl)cyclopropyl)methyl)-1H-benzo[d]imidazole-6-carboxylic acid] |
| <1.83 | 7.43 | N#Cc1ccc(COc2cccc(-c3ccc(Cc4nc5ccc(C(=O)O)cc5n4C4(CF)CC4)c(F)c3)n2)c(F)c1 [Example 381, 2-(4-(6-((4-cyano-2-fluorobenzyl)oxy)pyridin-2-yl)-2-fluorobenzyl)-1-(1-(fluoromethyl)cyclopropyl)-1H-benzo[d]imidazole-6-carboxylic acid] |
| <1.83 | 8.7 | N#Cc1ccc(COc2cccc(-c3ccc(Cc4nc5ccc(C(=O)O)cc5n4CC4CCC4)c(F)c3)n2)c(F)c1 [Example 382, 2-(4-(6-((4-cyano-2-fluorobenzyl)oxy)pyridin-2-yl)-2-fluorobenzyl)-1-(cyclobutylmethyl)-1H-benzo[d]imidazole-6-carboxylic acid] |
